Values quoted from earlier work, collected in US20030013767A1, “Method of treating weight loss using creatine” (priority 2001, published 2003).

Tests used:
[1] = test system: severe deficiency of creatine in brain; conditions: oral, ten to twelve months
[2] = test system: animal models of neurologic diseases, such as amyotrophic lateral sclerosis
gyrate atrophy = gyrate atrophy patients

In the case of `CN(CC(=O)O)C(=N)N` [creatine], the toxicity ([1]; 4 grams/day (305-370 mg/kg/day) to 8 grams/day (600-740 mg/kg/day)) is listed as “no report of toxicity”, the treatment outcome ([1]; 4 grams/day to 8 grams/day) is listed as “some success” and the therapeutic outcome [2] is listed as “without success”. The “effect on periocular muscles” value (gyrate atrophy) was “slight strengthening of the periocular muscles” and the “effect on the atrophy” value (gyrate atrophy) was “no effect on the atrophy”.
